The source of these data is ChEMBL document CHEMBL3868600, “Antibacterial profiling of abietane-type diterpenoids” (Bioorg Med Chem, 2017).

In assay [1] the test system is Staphylococcus aureus. Nature of the assay: Growth inhibition of Staphylococcus aureus ATCC 25923 at 50 uM after 24 hrs by broth microdilution method. In kind it is functional. The following applies: ATCC 25923, 24 h, read-out: GI.
Assay [2] deals with Escherichia coli. Nature of the assay: Growth inhibition of Escherichia coli ATCC 25922 at 50 uM after 24 hrs by broth microdilution method. The settings on record: ATCC 25922, 24 h, read-out: GI. In kind it is functional. (In general: In broth dilution the organism is exposed to a series of concentrations in liquid medium.)
Assay [3] concerns Candida albicans. Nature of the assay: Growth inhibition of Candida albicans ATCC 90028 at 50 uM after 48 hrs by broth microdilution method. In kind it is functional. The following applies: ATCC 90028, 48 h, read-out: GI.
The test system of assay [4] is Staphylococcus aureus. The experiment in a line: Antibacterial activity against Staphylococcus aureus ATCC 25923 after 24 hrs by broth microdilution method. In kind it is functional. The following applies: ATCC 25923, 24 h.
Assay [5] concerns Salmonella typhimurium. Nature of the assay: Antibacterial activity against Salmonella typhimurium ATCC 13311 after 24 hrs by broth microdilution method. In kind it is functional, Salmonella enterica subsp. enterica serovar Typhimurium. The settings on record: Salmonella enterica, ATCC 13311, 24 h.
The test system of assay [6] is Staphylococcus epidermidis. Nature of the assay: Antibacterial activity against Staphylococcus epidermidis ATCC 12228 after 24 hrs by broth microdilution method. In kind it is functional. The following applies: ATCC 12228, 24 h.
Assay [7] has as its system Cutibacterium acnes. Nature of the assay: Antibacterial activity against Propionibacterium acnes ATCC 6919 after 24 hrs by broth microdilution method. In kind it is functional. The following applies: ATCC 6919, 24 h.
Assay [8] has as its system Streptococcus mitis. Nature of the assay: Antibacterial activity against Streptococcus mitis NCIMB 13770 after 24 hrs by broth microdilution method. The settings on record: NCIMB 13770, 24 h. In kind it is functional.
Assay [9] can be described thus: Antifungal activity against Rhodotorula mucilaginosa ATCC 66034 after 48 hrs by broth microdilution method. In kind it is functional.
A short description of assay [10]: Antifungal activity against Cladosporium cladosporioides ATCC 16022 after 48 hrs by broth microdilution method. In kind it is functional.
Assay [11] has as its system Staphylococcus aureus. The experiment in a line: Antibacterial activity against methicillin-resistant Staphylococcus aureus ATCC 4330 after 24 hrs by broth microdilution method. In kind it is functional. The settings on record: ATCC 4330, 24 h.
Assay [12] deals with Candida albicans. The experiment in a line: Antifungal activity against Candida albicans ATCC 90028 after 48 hrs by broth microdilution method. In kind it is functional. The following applies: ATCC 90028, 48 h.
Assay [13] has as its system Staphylococcus aureus. The experiment in a line: Ratio of MIC90 for Staphylococcus aureus ATCC 25923 to MIC90 for methicillin-resistant Staphylococcus aureus ATCC 4330. In kind it is functional.
For assay [14], the system named is Escherichia coli. Nature of the assay: Antibacterial activity against Escherichia coli ATCC 25922 after 24 hrs by broth microdilution method. In kind it is functional.

Converted amounts (≈) assume the structure as drawn.

With `COC(=O)[C@@H](NC(=O)[C@]1(C)CCC[C@@]2(C)[C@H]1CC=C1C=C(C(C)C)CC[C@@H]12)C(C)C`, the inhibition of growth at 50 µM in assay [1] turned out to be 6%; in [2] it was 6%; in assay [3], 0%.

For the compound `CC(C)C1=CC2=CC[C@@H]3[C@](C)(CCC[C@@]3(C)C(=O)O)[C@H]2CC1` [ABIETIC ACID], the inhibition of growth at 50 µM in assay [1] is 44 to 45%; in assay [2], 0%; in assay [3] it was -53%. Also, the MIC90 in [4] was determined as 63 µg/mL (≈ 208 µM); in assay [5], 31 µg/mL (≈ 102 µM); in assay [6] it was 8 µg/mL (≈ 26.4 µM); in [7], 4 µg/mL (≈ 13.2 µM); in assay [8], 16 µg/mL (≈ 52.9 µM); in assay [9] it was 31 µg/mL (≈ 102 µM). Further, the MIC90 in [10] was 63 µg/mL (≈ 208 µM); in assay [11], 31 µg/mL (≈ 102 µM).

As to `O=C(N[C@H](CO)[C@H](O)c1ccc([N+](=O)[O-])cc1)C(Cl)Cl` [CHLORAMPHENICOL], the MIC90 in [5] worked out at 8 µg/mL (≈ 24.8 µM); in assay [6], 8 µg/mL (≈ 24.8 µM); in assay [7], 4 µg/mL (≈ 12.4 µM); in assay [8] it was 4 µg/mL (≈ 12.4 µM).

In the case of `C[C@@H]1[C@H](O)[C@@H](C)/C=C/C=C/C=C/C=C/C=C/C=C/C=C/[C@H](O[C@@H]2O[C@H](C)[C@@H](O)[C@H](N)[C@@H]2O)C[C@@H]2O[C@](O)(C[C@@H](O)C[C@@H](O)[C@H](O)CC[C@@H](O)C[C@@H](O)CC(=O)O[C@H]1C)C[C@H](O)[C@H]2C(=O)O` [AMPHOTERICIN B], the MIC90 in [12] stood at 16 µg/mL (≈ 17.3 µM).

In turn, `COC(=O)[C@@H](CO)NC(=O)[C@]1(C)CCC[C@]2(C)c3ccc(C(C)C)cc3CC[C@@H]12` came in with an IC50 in assay [4] of 21 to 30 µg/mL (≈ 52.3 to 74.7 µM). Besides, the MIC90 in assay [4] amounted to 60 µg/mL (≈ 149 µM); in assay [5], 31 µg/mL (≈ 77.2 µM); in assay [6] it was 8 µg/mL (≈ 19.9 µM); in assay [7], 16 µg/mL (≈ 39.8 µM); in assay [8], 8 µg/mL (≈ 19.9 µM); in assay [9], 31 µg/mL (≈ 77.2 µM). For the same compound, the figures for the MIC90 in assay [10] and in assay [11] were greater than 125 µg/mL and 8 µg/mL (≈ 19.9 µM), respectively. Moreover, in assay [13], the Ratio is 7.5.

Take `CC1(C)S[C@@H]2[C@H](NC(=O)[C@H](N)c3ccccc3)C(=O)N2[C@H]1C(=O)O` [AMPICILLIN]: the MIC90 came out at 0.5 µg/mL (≈ 1.43 µM) in assay [5], 2 µg/mL (≈ 5.72 µM) in assay [6], 0.125 µg/mL (≈ 0.358 µM) in assay [7] and 2 µg/mL (≈ 5.72 µM) in [8].

As for NYSTATIN, the results for the MIC90 in [9] and in [10] were 0.125 µg/mL and 64 µg/mL, respectively.

Take `COC(=O)[C@H](CC(C)C)NC(=O)[C@]1(C)CCC[C@@]2(C)[C@H]1CC=C1C=C(C(C)C)CC[C@@H]12`: the figures for the inhibition of growth at 50 µM in assay [1], in [2] and in assay [3] were -9%, 6% and -8%, respectively.

For `COC(=O)[C@H](CO)NC(=O)[C@]1(C)CCC[C@@]2(C)[C@H]1CC=C1C=C(C(C)C)CC[C@@H]12`, the inhibition of growth at 50 µM in [1] came to 76%; in [2], 9%; in assay [3] it was 39%. The IC50 in assay [4] fell in the range of 21 to 30 µg/mL (≈ 52 to 74.3 µM). Further, the MIC90 in [4] is 61 µg/mL (≈ 151 µM); in assay [5], greater than 125 µg/mL; in assay [6], 16 µg/mL (≈ 39.6 µM); in assay [7], greater than 125 µg/mL; in assay [8], greater than 125 µg/mL; in assay [9], 31 µg/mL (≈ 76.8 µM). Moreover, the figures for the MIC90 in assay [10] and in assay [11] were greater than 125 µg/mL and 62 µg/mL (≈ 154 µM), respectively.

With `CN(C)[C@@H]1C(O)=C(C(N)=O)C(=O)[C@@]2(O)C(O)=C3C(=O)c4c(O)cccc4[C@@](C)(O)[C@H]3C[C@@H]12` [TETRACYCLINE], the MIC90 in assay [5] amounted to 16 µg/mL (≈ 36 µM); in [6] it was 1 µg/mL (≈ 2.25 µM); in [7] it was 2 µg/mL (≈ 4.5 µM); in [8] it was 1 µg/mL (≈ 2.25 µM).

`CC[C@H]1OC(=O)[C@H](C)[C@@H](O[C@H]2C[C@@](C)(OC)[C@@H](O)[C@H](C)O2)[C@H](C)[C@@H](O[C@@H]2O[C@H](C)C[C@H](N(C)C)[C@H]2O)[C@](C)(OC)C[C@@H](C)C(=O)[C@H](C)[C@@H](O)[C@]1(C)O` [CLARITHROMYCIN]: the MIC90 came out at 0.5 µg/mL (≈ 0.668 µM) in [7] and 0.25 µg/mL (≈ 0.334 µM) in assay [8].

For the compound `COC(=O)[C@H](CO)NC(=O)[C@]1(C)CCC[C@]2(C)c3ccc(C(C)C)cc3CC[C@@H]12`, in [4], the IC50 was in the range of 21 to 30 µg/mL (≈ 52.3 to 74.7 µM) and the MIC90 was greater than 125 µg/mL.

Consider `COC(=O)[C@H](CC1CCCCC1)NC(=O)[C@]1(C)CCC[C@@]2(C)[C@H]1CC=C1C=C(C(C)C)CC[C@@H]12`, for which the inhibition of growth at 50 µM in assay [1] was -8%; in assay [2] it was 3%; in [3], -35%.

`O=C(O)c1cn(C2CC2)c2cc(N3CCNCC3)c(F)cc2c1=O` [CIPROFLOXACIN] gave an MIC90 in assay [4] of 1 µg/mL (≈ 3.02 µM).

In [14], GENTAMICIN had an MIC90 of 2 µg/mL.

Turning to `COC(=O)[C@H](Cc1ccccc1)NC(=O)[C@]1(C)CCC[C@@]2(C)[C@H]1CC=C1C=C(C(C)C)CC[C@@H]12`, the values for the inhibition of growth at 50 µM in assay [1], in assay [2] and in assay [3] were -1%, 6% and -13%, respectively.

Take `COC(=O)CNC(=O)[C@]1(C)CCC[C@@]2(C)[C@H]1CC=C1C=C(C(C)C)CC[C@@H]12`: the results for the inhibition of growth at 50 µM in assay [1], in [2] and in assay [3] were 13%, 8% and 20%, respectively.

As to `CC[C@H](NC(=O)[C@]1(C)CCC[C@@]2(C)[C@H]1CC=C1C=C(C(C)C)CC[C@@H]12)C(=O)OC`, the inhibition of growth at 50 µM in assay [1] was -12%; in [2], 11%; in assay [3], 23%.

As to `OC(Cn1cncn1)(Cn1cncn1)c1ccc(F)cc1F`, the MIC90 in assay [9] is 0.5 µg/mL (≈ 1.63 µM); in [10], 520 µg/mL (≈ 1700 µM).

One may read the MIC90 as the lowest concentration that inhibits either 90% of growth or 90% of the strains tested, depending on the study. Broadly, the IC50 is the midpoint of a concentration-inhibition curve. Read a low IC50 as higher potency.
